Results reported in ChEMBL document CHEMBL1125531, “Synthetic nonpsychotropic cannabinoids with potent antiinflammatory, analgesic, and leukocyte antiadhesion activities” (1992).
Several values for one entry are separate records, joined by “and”; a condition that tells them apart may be missing. Equal values may be shown once.

Columns and labels:
Type in all cases: functional
Mus musculus [1] = experiment: Compound was evaluated for the percent inhibition of PAF-induced Paw edema at the dose 0.25 (mg/kg) (Increases in paw volume is 24 uL)
Mus musculus [2] = experiment: Compound was evaluated for the percent inhibition of PAF-induced Paw edema at the dose 0.5 (mg/kg) (Increases in paw volume is 28 uL)
Mus musculus [3] = experiment: Compound was evaluated for the percent inhibition of PAF-induced Paw edema at the dose 0.1 (mg/kg) (Increases in paw volume is 38 uL)
Mus musculus [4] = experiment: Compound was evaluated for the antinociceptive effects at the dose 0.25(mg/kg)
Mus musculus [5] = experiment: Compound was evaluated for the antinociceptive effects at the dose 0.5(mg/kg)
Mus musculus [6] = experiment: Compound was evaluated for the antinociceptive effects at the dose 1.0(mg/kg)
Mus musculus [7] = experiment: Compound was evaluated for the antinociceptive effects at the dose 2.0(mg/kg)
Mus musculus [8] = experiment: Compound was evaluated for the antinociceptive effects at the dose 4.0(mg/kg)
Mus musculus [9] = experiment: Compound was evaluated for the percent inhibition of PAF-induced Paw edema at the dose 1.0 (mg/kg) (Increases in paw volume is 14 uL)
Mus musculus [10] = experiment: Compound was evaluated for the percent inhibition of PAF-induced Paw edema at the dose 0.5 (mg/kg) (Increases in paw volume is 30 uL)
Mus musculus [11] = experiment: Compound was evaluated for the effect on leukocyte adhesion at the dose 0.05 (mg/kg); oral administration
Mus musculus [12] = experiment: Compound was evaluated for the effect on leukocyte adhesion at the dose 0.5(mg/kg); oral administration
Mus musculus [13] = experiment: Compound was evaluated for the effect on leukocyte adhesion at the dose 0.1 (mg/kg); oral administration
Mus musculus [14] = experiment: Compound was evaluated for the effect on leukocyte adhesion at the dose 0.2 (mg/kg); oral administration
Mus musculus [15] = experiment: Compound was evaluated for the percent inhibition of PAF-induced Paw edema at the dose 0.5 (mg/kg) (Increases in paw volume is 44 uL)
Mus musculus [16] = experiment: Compound was evaluated for the percent inhibition of PAF-induced Paw edema at the dose 1.0 (mg/kg) (Increases in paw volume is 28 uL)
Mus musculus [17] = experiment: Compound was evaluated for the effect on leukocyte adhesion at the dose 0.5 (mg/kg); oral administration
Mus musculus [18] = experiment: Compound was evaluated for the effect on leukocyte adhesion at the dose 1.0 (mg/kg); oral administration
Mus musculus [19] = experiment: Compound was evaluated for the percent inhibition of PAF-induced Paw edema at the dose 0.25 (mg/kg) (Increases in paw volume is 11 uL)
Mus musculus [20] = experiment: Compound was evaluated for the percent inhibition of PAF-induced Paw edema at the dose 0.5 (mg/kg) (Increases in paw volume is 7.5 uL)
Mus musculus [21] = experiment: Compound was evaluated for the percent inhibition of PAF-induced Paw edema at the dose 0.1 (mg/kg) (Increases in paw volume is 19 uL)
Mus musculus [22] = experiment: Compound was evaluated for the effect on leukocyte adhesion at the dose 40 (mg/kg); oral administration
Mus musculus [23] = experiment: Compound was evaluated for the cataleptic effect in the mouse at the dose 0.5 mg/kg
Mus musculus [24] = experiment: Compound was evaluated for the cataleptic effect in the mouse at the dose 5.0(mg/kg)
Mus musculus [25] = experiment: Compound was evaluated for the effect on leukocyte adhesion at the dose 20 (mg/kg); oral administration
Mus musculus [26] = experiment: Compound was evaluated for the percent inhibition of PAF-induced Paw edema at the dose 0.1 (mg/kg) (Increases in paw volume is -10 uL)
Mus musculus [27] = experiment: Compound was evaluated for the percent inhibition of PAF-induced Paw edema at the dose 0.25 (mg/kg) (Increases in paw volume is -14 uL)
Mus musculus [28] = experiment: Compound was evaluated for the percent inhibition of PAF-induced Paw edema at the dose 0.5 (mg/kg) (Increases in paw volume is -20 uL)
Mus musculus [29] = experiment: Compound was evaluated for the percent inhibition of arachidonic acid-induced paw edema at the dose 0.05(mg/kg)
Mus musculus [30] = experiment: Compound was evaluated for the percent inhibition of arachidonic acid-induced paw edema at the dose 0.1(mg/kg)
Mus musculus [31] = experiment: Compound was evaluated for the percent inhibition of arachidonic acid-induced paw edema at the dose 0.25(mg/kg)
Mus musculus [32] = experiment: Compound was evaluated for the percent inhibition of arachidonic acid-induced paw edema at the dose 0.5(mg/kg)
Mus musculus [33] = experiment: Compound was evaluated for the percent inhibition of PAF-induced Paw edema at the dose 0.05 (mg/kg) (Increases in paw volume is -1.2 uL)
Mus musculus [34] = experiment: Compound was evaluated for the effect on leukocyte adhesion at the dose 0.01 (mg/kg); oral administration
Mus musculus [35] = experiment: Compound was evaluated for the antinociceptive effects at the dose 0.025(mg/kg)
Mus musculus [36] = experiment: Compound was evaluated for the antinociceptive effects at the dose 0.05(mg/kg)
Mus musculus [37] = experiment: Compound was evaluated for the antinociceptive effects at the dose 0.1(mg/kg)
Mus musculus [38] = experiment: Compound was evaluated for the cataleptic effect in the mouse at the dose 0.1(mg/kg)
Mus musculus [39] = experiment: Compound was evaluated for the cataleptic effect in the mouse at the dose 1.0(mg/kg)
Mus musculus [40] = experiment: Compound was evaluated for the cataleptic effect in the mouse at the dose 40 mg/kg
Mus musculus [41] = experiment: Compound was evaluated for the percent inhibition of PAF-induced Paw edema at the dose 0.05 (mg/kg) (Increases in paw volume is 10 uL)
Mus musculus [42] = experiment: Compound was evaluated for the cataleptic effect in the mouse at the dose 0.25(mg/kg)
Mus musculus [43] = experiment: Compound was evaluated for the cataleptic effect in the mouse at the dose 0.5(mg/kg)
Mus musculus [44] = experiment: Compound was evaluated for the cataleptic effect in the mouse at the dose 4.0(mg/kg)

## CCCCCCC(C)(C)c1cc(O)c2c(c1)OC(C)(C)C1CC=C(C(=O)OC)C[C@H]21 (some centres undefined)
Mus musculus [1]
  Inhibition: 7.6%
Mus musculus [2]
  Inhibition: -7.5%
Mus musculus [3]
  Inhibition: -44.2%
Mus musculus [4]
  Change: 10.4%
Mus musculus [5]
  Change: 49%
Mus musculus [6]
  Change: 61.4%
Mus musculus [7]
  Change: 37.5%
Mus musculus [8]
  Change: 3.1%

## CCCCCCC(C)(C)c1cc(O)c2c(c1)OC(C)(C)[C@@H]1CC=C(CO)CC21 (some centres undefined)
Mus musculus [9]
  Inhibition: 56.3%
Mus musculus [10]
  Inhibition: 6.3%
Mus musculus [11]
  No. of cells: 1.12
Mus musculus [12]
  No. of cells: 0.59
Mus musculus [13]
  No. of cells: 0.94
Mus musculus [14]
  No. of cells: 0.58

## CCCCCCC(C)(C)c1cc(O)c2c(c1)OC(C)(C)C1CC=C(CO)C[C@H]21 (some centres undefined)
Mus musculus [15]
  Inhibition: -37.5%
Mus musculus [16]
  Inhibition: 21.8%
Mus musculus [11]
  No. of cells: 1.09
Mus musculus [13]
  No. of cells: 0.44
Mus musculus [17]
  No. of cells: 0.64
Mus musculus [18]
  No. of cells: 0.59

## CCCCCCC(C)(C)c1cc(O)c2c(c1)OC(C)(C)[C@@H]1CC=C(C(=O)OC)CC21 (some centres undefined)
Mus musculus [19]
  Inhibition: 63.9%
Mus musculus [20]
  Inhibition: 76%
Mus musculus [5]
  Change: -2.8%
Mus musculus [7]
  Change: 42.9%
Mus musculus [21]
  Inhibition: 69.3%

## CCCCCc1cc(O)c2c(c1)OC(C)(C)[C@H]1C(C(=O)O)CC(C)=CC21 (some centres undefined)
Mus musculus [22]
  No. of cells: 0.55
Mus musculus [23]
  No. of cells: 10
Mus musculus [24]
  No. of cells: 10.1
Mus musculus [25]
  No. of cells: 0.67

## CCCCCCC(C)(C)c1cc(O)c2c(c1)OC(C)(C)[C@@H]1CC=C(C(=O)O)CC21 (some centres undefined)
Mus musculus [26]
  Inhibition: 135%
Mus musculus [27]
  Inhibition: 150%
Mus musculus [28]
  Inhibition: 171%
Mus musculus [29]
  Inhibition: 26.3%
Mus musculus [30]
  Inhibition: 52.6%
Mus musculus [31]
  Inhibition: 56.4%
Mus musculus [32]
  Inhibition: 73.7% and 97.4% and 100%
Mus musculus [33]
  Inhibition: 101%
Mus musculus [34]
  No. of cells: 0.88
Mus musculus [11]
  No. of cells: 1.34
Mus musculus [13]
  No. of cells: 0.64
Mus musculus [17]
  No. of cells: 0.87
Mus musculus [18]
  No. of cells: 0.3
Mus musculus [35]
  Change: 20.8%
Mus musculus [36]
  Change: 85%
Mus musculus [37]
  Change: 68.3%
Mus musculus [4]
  Change: 33.4%
Mus musculus [5]
  Change: 34%
Mus musculus [6]
  Change: 28.4%
Mus musculus [38]
  Response: 5.8
Mus musculus [39]
  Response: 12.2

## CCCCCc1cc(O)c2c(c1)OC(C)(C)[C@@H]1CCC(C)=C[C@@H]21 [DRONABINOL]
Mus musculus [40]
  Cataleptic effect: 48.9

## CCCCCCC(C)(C)c1cc(O)c2c(c1)OC(C)(C)C1CC=C(C(=O)O)C[C@H]21 (some centres undefined)
Mus musculus [19]
  Inhibition: 31.9%
Mus musculus [20]
  Inhibition: 60.1%
Mus musculus [29]
  Inhibition: 42.1%
Mus musculus [30]
  Inhibition: 65.8%
Mus musculus [31]
  Inhibition: 52.6%
Mus musculus [32]
  Inhibition: 47.4%
Mus musculus [41]
  Inhibition: 44.4%
Mus musculus [34]
  No. of cells: 1.34
Mus musculus [11]
  No. of cells: 1.29
Mus musculus [13]
  No. of cells: 1.38
Mus musculus [17]
  No. of cells: 1.46
Mus musculus [18]
  No. of cells: 0.7
Mus musculus [35]
  Change: 10.3%
Mus musculus [36]
  Change: 61.7%
Mus musculus [37]
  Change: 49.5%
Mus musculus [4]
  Change: 61.5%
Mus musculus [5]
  Change: 51.7%
Mus musculus [6]
  Change: 14.7%
Mus musculus [42]
  Response: 12.3
Mus musculus [43]
  Response: 13.8
Mus musculus [39]
  Response: 10.4
Mus musculus [44]
  Response: 8.7
Mus musculus [21]
  Inhibition: 38.7%
